How the values were obtained:
[1] = Metabolic stability in human liver microsomes; assay type: in vitro ADME; conditions: 1 μM
Protocol: Stability of Compound-3 was first investigated in microsomal systems from human and rat. The microsomal protein and Compound-3 concentrations were optimized to 0.2 mg/mL and 1 µM, respectively. Before the start of the incubation, reaction mixtures containing phosphate buffer (100 mM, pH 7.4), microsomes and Compound-3 in a total volume of 50 µL were warmed up at 37 °C for 10 min. The reaction was started with the addition of NADPH at a final concentration of 1 mM. Incubations were terminated at a specified time with the addition of 100 µL ice-cold acetonitrile containing the internal standard. The samples were then centrifuged, and aliquots of 10 µL of the supernatants were transferred into liquid chromatography-tandem mass spectrometry (LC-MS/MS) for the analysis of Compound-3 levels.

[2] = Metabolite identification by UPLC/Triple TOF MS in human hepatocytes; assay type: in vitro ADME; design: key: √: metabolites were detected by high-resolution mass spectrometry; conditions: Compound-3 10 μM, 1 × 10^6 cell/mL, 60 min, HRMS
Protocol: For metabolite identification, a higher concentration of Compound-3 (10 μM) was incubated with liver microsomes (1 mg/mL) in the presence of NADPH (1 mM) and primary human hepatocytes at a density of 1 × 10^6 cell/mL. Samples were collected at 0 min and 60 min with the addition of ice-cold acetonitrile. After vortexing and centrifugation, the supernatant was transferred into a new tube and evaporated to dryness. The samples were then reconstituted in 100 μL of water and methanol (v/v, 9:1). An aliquot of 10 μL of reconstituted solution was injected into UPLC/Triple TOF 5600^+ MS for metabolite identification.
Identification of Compound-3 metabolites was carried out using Acquity UPLC/Triple TOF 5600^+ system. Chromatographic separation for Compound-3 and its metabolites were achieved by an Acquity UPLC HSS T3 column (100 × 2.1 mm i.d., […]; Waters Corp.) maintained at 40 °C. The mobile phase was a mixture of 0.02% formic acid in 5 mM ammonium acetate (A) and methanol (B). The gradient elution was started from 2% B and maintained for 4 min, then increased linearly to 75% B over the next 4 min and maintained for 8 min. […] The flow rate was 0.4 mL/min and the eluent was monitored by UV detection at 280 nm.
For mass detection, a Triple TOF 5600^+ mass spectrometer (AB Sciex, Framingham, MA, USA) was operated in positive ion electrospray (ES-positive) mode with the source temperature at 500 °C and scan range from m/z 100 to 1000 Da. Other parameters were set as follows: ion spray voltage, 5500 V; decluttering potential, 80 V; curtain gas, 40 psi; ion source gas 1, 55 psi; and ion source gas 2, 50 psi. Collision energies of 25 and 65 eV were used for TOF MS and product ion scans, respectively, and a collision energy spread of 20 was used in the MS/MS analysis. Information-dependent acquisition (IDA), together with real-time multiple mass defect filter, was used to trigger acquisition of MS/MS spectra.

CYP3A4 = target: T1, CYP3A4 (Homo sapiens, UniProt P08684); experiment: Reaction phenotyping with recombinant CYP3A4; assay type: in vitro ADME; conditions: recombinant CYP3A4 50 nM, 1 μM, NADPH
T1 construct: purchased Corning Gentest
Protocol: Compound-3 was incubated separately with human cDNA-expressed cytochrome P450s (CYP1A2, CYP2B6, CYP2C8, CYP2C9, CYP2C19, CYP2D6, CYP3A4, CYP4A11, CYP4F2 and CYP4F3). The incubation mixtures contained individual CYP isoenzymes (50 nM), potassium phosphate buffer (100 mM, pH 7.4), NADPH (1 mM), and Compound-3 (1 µM). The final volume of the incubation mixture was 50 µL. Before the start of the incubation, reaction mixtures were warmed up at 37 °C for 10 min. The reaction was initiated with the addition of NADPH and the incubations were performed at 37 °C in a water bath. After 60 min of incubation, the reactions were terminated with an equal volume of ice-cold acetonitrile containing the internal standard. Control samples without NADPH but substrates were included. The samples were then centrifuged and aliquots of 10 μL of the supernatants were transferred onto LC-MS/MS for the analysis of Compound-3 and M4 (carboxylic acid) levels.

CYP4F2 = target: T2, CYP4F2 (Homo sapiens, UniProt P78329); experiment: Formation kinetics of M4 (carboxylic acid) from Compound-3 by CYP4F2; assay type: in vitro ADME; conditions: CYP4F2 10 nM, 10 min, uncompetitive substrate inhibition equation, estimated
T2 construct: purchased Corning Gentest
T2 sequence (P78329 5-520): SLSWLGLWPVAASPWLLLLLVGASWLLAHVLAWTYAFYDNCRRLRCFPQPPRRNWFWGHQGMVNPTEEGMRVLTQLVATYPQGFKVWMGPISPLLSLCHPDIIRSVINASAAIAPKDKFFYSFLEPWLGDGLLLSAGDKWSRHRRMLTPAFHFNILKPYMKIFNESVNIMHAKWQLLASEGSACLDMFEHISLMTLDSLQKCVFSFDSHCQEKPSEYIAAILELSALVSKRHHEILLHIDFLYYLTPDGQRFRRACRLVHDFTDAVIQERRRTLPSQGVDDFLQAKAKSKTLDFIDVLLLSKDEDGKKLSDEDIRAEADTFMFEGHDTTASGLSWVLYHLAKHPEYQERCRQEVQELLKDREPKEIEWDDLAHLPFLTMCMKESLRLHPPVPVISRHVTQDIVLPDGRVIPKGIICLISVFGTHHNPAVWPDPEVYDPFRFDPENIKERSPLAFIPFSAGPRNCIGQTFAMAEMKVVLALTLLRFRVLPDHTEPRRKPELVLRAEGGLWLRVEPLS
Protocol: To investigate the formation kinetics of carboxylic acid metabolite (M4) from Compound-3, varying concentrations of Compound-3 (0–10 µM) were incubated with 10 nM CYP4F2 and 1 mM NADPH in 100 mM phosphate buffer (pH 7.4). The reactions were carried at 37 °C for 10 min and terminated with the addition of ice-cold acetonitrile containing the internal standard. Samples were then centrifuged, and aliquots of 10 μL of the supernatants were analyzed by LC-MS/MS for M4 levels.
Kinetic parameters of Compound-3 in recombinant human CYP4F2 were calculated using Enzyme Kinetics Modules of SigmaPlot (Version 14.0, Systat Software, San Jose, CA, USA). An uncompetitive substrate inhibition equation was also used:V = (Vmax × [S])/{Km + [S] × (1 + [S]/Ki)}(2) where Ki is the disassociation constant describing the inhibitor-enzyme interaction.

tumor = conditions: in vitro and in vivo testing in the preclinical setting; cited from earlier work
[3] = tested on: human equilibrative transporter 1 (hENT1); conditions: cited from earlier work

T1 sequence (P08684 whole entry): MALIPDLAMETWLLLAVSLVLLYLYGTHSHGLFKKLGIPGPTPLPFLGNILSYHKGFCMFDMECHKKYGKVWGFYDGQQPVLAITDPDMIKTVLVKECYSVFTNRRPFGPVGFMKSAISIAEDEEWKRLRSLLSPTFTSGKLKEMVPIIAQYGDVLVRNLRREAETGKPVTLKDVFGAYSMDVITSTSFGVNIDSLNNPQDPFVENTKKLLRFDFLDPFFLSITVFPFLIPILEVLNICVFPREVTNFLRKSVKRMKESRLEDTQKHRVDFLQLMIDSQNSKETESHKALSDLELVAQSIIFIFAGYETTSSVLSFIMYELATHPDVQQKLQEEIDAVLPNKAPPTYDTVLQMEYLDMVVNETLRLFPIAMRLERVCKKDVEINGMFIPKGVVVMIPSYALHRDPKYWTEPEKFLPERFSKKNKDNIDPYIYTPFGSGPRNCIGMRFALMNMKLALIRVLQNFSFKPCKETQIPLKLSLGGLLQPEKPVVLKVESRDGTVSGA

CCCCCCCCCCCCCCCCCCOCCOP(=O)(O)OCC1OC(n2ccc(N)nc2=O)C(F)(F)C1O (stereo not shown) [Compound-3]
stability in microsomes in the absence of NADPH ([1]; human and rat liver and intestinal microsomes, absence of NADPH): relatively stable | disappearance after 60 min incubation ([1]; human liver microsomes 0.2 mg/mL, with NADPH, 37 °C, 60 min): more than 70% | detected in matrix Human Hepatocytes [2]: √ | metabolism of Compound-3 by CYP isozyme (CYP3A4): moderate metabolic activity | Ki (CYP4F2): 1.2 nM | antitumor activity as compared to gemcitabine itself and LY2334737 (tumor): enhanced antitumor activity | cellular uptake limitation by hENT1 [3]: low propensity to be limited

From PMC6100113, “Involvement of CYP4F2 in the Metabolism of a Novel Monophosphate Ester Prodrug of Gemcitabine and Its Interaction Potential In Vitro” (Molecules : A Journal of Synthetic Chemistry and Natural …, 2018)
